Like-named read-outs stand apart in the source and are kept apart here.
Tested on: NK Falkone 2015 corn seeds
Assay: Corn seed germination under cold stress (Example B1)
Assay type: in vivo
Details: Zea mays, cold stress 15° C.; for change in vivo at 2 µM: Rate 2 μM; for change in vivo at 10 µM: Rate 10 μM; for change in vivo at 50 µM: Rate 50 μM; for change in vivo at 250 µM: Rate 250 μM
Procedure: The effect of compounds of formula (I) on the germination of NK Falkone 2015 corn seeds under cold stress was evaluated as follows. NK Falkone corn seeds were sorted by size using 2 sieves, one excluding very big seeds and the other with round holes of 8 to 9 mm diameter. The seeds retained by the latter sieve were used for the germination test. The corn seeds were placed in 24 well plates (each plate was considered as one experimental unit or replicate). Germination was initiated by the addition of 250 μl of distilled water containing 0.5% DMSO per well as a means for compound solubilization. 8 replicates (ie, 8 plates) were used for each treatment characterization. Plates were sealed using seal foil (Polyolefin Art. Nr. 900320) from HJ-BIOANALYTIK. All plates were placed horizontally on trolleys in a climatic chamber at 15° C. The experiment was laid out in a completely randomized design in climatic chamber with 75% Relative Humidity. Foils were pierced, one hole per well using a syringe after 72 hours for experiments performed at 15° C.
Germination was followed over time by taking photographs at different time points. Image analysis was performed automatically with a macro which was developed using the Image J software. A dynamic analysis of germination was carried out by fitting a logistic curve. Three parameters were calculated from the logistic curve: the T50; the slope and the plateau. All three parameters have a high agronomical relevance and are key requirements to ensure a good early crop-establishment. All the values are expressed as percentages compared to an untreated control. All the three parameters are calculated considering 8 replicates and the kinetic parameters are separately determined for each germination curve. Data in bold indicate germination enhancing statistically significant differences between treated seeds and untreated control (p<0.05). The T50 corresponds to the time needed for half of the seed population to germinate. Higher negative %-values indicate faster germination. The slope indicates how synchronous the germination of the seed population is. Positive values indicate steeper curve; the steeper the curve, the better and more uniform the germination is.

[1] = slope of logistic germination curve, read-out: Slope (% vs control)
[2] = time for half of seeds to germinate, control T50 = 110 hours, read-out: T50 (% vs control)

## CC1=CC(O/C=C2/C(=O)OC3Cc4ccccc4C23)OC1=O (stereo not shown) [Prior art 3]
[1]
  change in vivo at 2 µM: -0.7%
  change in vivo at 10 µM: 2.2%
  change in vivo at 50 µM: 4%
  change in vivo at 250 µM: 14.1%
[2]
  change in vivo at 2 µM: 1.6%
  change in vivo at 10 µM: 0%
  change in vivo at 50 µM: -0.8%
  change in vivo at 250 µM: -0.5%

## COC(=O)/C(=C/OC1C=C(C)C(=O)O1)c1ccccc1 (stereo not shown) [Prior art 4]
[1]
  change in vivo at 2 µM: -7.7%
  change in vivo at 10 µM: 14.9%
  change in vivo at 50 µM: -11.4%
  change in vivo at 250 µM: 4.1%
[2]
  change in vivo at 2 µM: 1.2%
  change in vivo at 10 µM: -3.4%
  change in vivo at 50 µM: 2.4%
  change in vivo at 250 µM: 0.1%

Reference: patent publication US11136292B2, “Plant growth regulator compounds” (SYNGENTA PARTICIPATIONS AG, priority 2016, dated 2021)
